Data reported in patent US7691855B2, “Phenyl-[4-(3-phenyl-1h-pyrazol-4-yl)-pyrimidin-2-yl)-amine derivatives” (Novartis AG, priority 2002, dated 2010).

Experiments:
EGF-R (HER-1) = molecular target: T1, EGF-R (HER-1) (Homo sapiens, UniProt P00533); experiment: Inhibition of EGF-R (HER-1) tyrosine kinase activity; assay type: biochemical; conditions: recombinant intracellular domain of the EGF-receptor
T1 construct: using the recombinant intracellular domain of the EGF-receptor [EGF-R ICD
Experimental: J. Biochem. 207, 265-275 (1992)]. Compared with the control without inhibitor, the compounds of formula I inhibit the enzyme activity by 50% (IC50), for example in a concentration of from 0.0005 to 0.5 μM, especially from 0.001 to 0.1 μM.
(§1) Inhibition of the tyrosine kinase Activity of EGF-R (HER-1), ErbB-2 (HER-2) and VEGF Receptor (KDR)
(§2) The inhibition tests are carried out as described above.

ErbB-2 (HER-2) = ErbB-2 (HER-2) (Homo sapiens, UniProt P04626); experiment: Inhibition of ErbB-2 (HER-2) tyrosine kinase activity; assay type: biochemical
Experimental: The inhibitory activity (IC50) is approximately in the range of 0.001 to 0.5 μM. The inhibition of ErbB2 tyrosine kinase (HER-2) can be determined, for example, analogously to the method used for EGF-R protein tyrosine kinase [see C. House et al., Europ. J. Biochem. 140. 363-367 (1984)]. The ErbB-2 kinase can be isolated, and its activity determined, by means of protocols known per se, for example in accordance with T. Akiyama et al., Science 232 1644 (1986).
as §1, §2

VEGF Receptor (KDR) = molecular target: T2, VEGF Receptor (KDR) (Homo sapiens, UniProt P35968); experiment: Inhibition of VEGF receptor (KDR) tyrosine kinase activity; assay type: biochemical
T2 construct: as in the cited Wood et al. 2000 method
Experimental: The compounds of the present invention are therefore very effective dual inhibitors of EGF- and VEGF-receptor family members. For inhibition of KDR and Flt-1 and inhibition of growth factor-induced proliferation of HUVECS see J. Wood et al., Cancer Res. 60, 2178-2189 (2000). The compounds of formula I inhibit e.g. the KDR tyrosine kinase activity with an IC50 of from about 1 nM to about 1 μM, especially from about 5 nM to about 0.5 μM.
as §1, §2

T2 sequence (P35968 834-1162 limits assumed): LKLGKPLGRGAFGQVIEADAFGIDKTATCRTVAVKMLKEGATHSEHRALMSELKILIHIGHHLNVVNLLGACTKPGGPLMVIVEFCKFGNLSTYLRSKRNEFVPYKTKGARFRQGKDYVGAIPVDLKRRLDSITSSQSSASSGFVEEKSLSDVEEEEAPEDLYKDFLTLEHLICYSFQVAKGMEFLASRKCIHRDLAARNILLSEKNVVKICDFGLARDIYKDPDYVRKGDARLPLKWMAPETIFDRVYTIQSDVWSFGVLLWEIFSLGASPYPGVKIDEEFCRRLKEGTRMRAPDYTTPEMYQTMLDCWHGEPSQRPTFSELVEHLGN
T1 sequence (P00533 669-1210 limits assumed): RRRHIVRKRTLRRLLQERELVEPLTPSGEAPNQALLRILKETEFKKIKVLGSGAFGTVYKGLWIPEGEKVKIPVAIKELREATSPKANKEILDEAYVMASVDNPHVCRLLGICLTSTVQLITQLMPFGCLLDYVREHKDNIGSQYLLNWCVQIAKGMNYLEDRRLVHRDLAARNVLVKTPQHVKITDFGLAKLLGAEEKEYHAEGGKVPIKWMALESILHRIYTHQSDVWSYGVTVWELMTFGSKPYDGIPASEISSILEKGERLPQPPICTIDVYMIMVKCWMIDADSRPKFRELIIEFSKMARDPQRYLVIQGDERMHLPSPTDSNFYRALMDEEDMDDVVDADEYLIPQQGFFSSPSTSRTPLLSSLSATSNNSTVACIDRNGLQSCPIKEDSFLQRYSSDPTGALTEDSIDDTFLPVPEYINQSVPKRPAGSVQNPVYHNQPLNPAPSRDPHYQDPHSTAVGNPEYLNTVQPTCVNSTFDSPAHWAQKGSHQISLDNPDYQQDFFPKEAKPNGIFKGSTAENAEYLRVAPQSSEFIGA
Chain of ErbB-2 (HER-2) (P04626 23-1255): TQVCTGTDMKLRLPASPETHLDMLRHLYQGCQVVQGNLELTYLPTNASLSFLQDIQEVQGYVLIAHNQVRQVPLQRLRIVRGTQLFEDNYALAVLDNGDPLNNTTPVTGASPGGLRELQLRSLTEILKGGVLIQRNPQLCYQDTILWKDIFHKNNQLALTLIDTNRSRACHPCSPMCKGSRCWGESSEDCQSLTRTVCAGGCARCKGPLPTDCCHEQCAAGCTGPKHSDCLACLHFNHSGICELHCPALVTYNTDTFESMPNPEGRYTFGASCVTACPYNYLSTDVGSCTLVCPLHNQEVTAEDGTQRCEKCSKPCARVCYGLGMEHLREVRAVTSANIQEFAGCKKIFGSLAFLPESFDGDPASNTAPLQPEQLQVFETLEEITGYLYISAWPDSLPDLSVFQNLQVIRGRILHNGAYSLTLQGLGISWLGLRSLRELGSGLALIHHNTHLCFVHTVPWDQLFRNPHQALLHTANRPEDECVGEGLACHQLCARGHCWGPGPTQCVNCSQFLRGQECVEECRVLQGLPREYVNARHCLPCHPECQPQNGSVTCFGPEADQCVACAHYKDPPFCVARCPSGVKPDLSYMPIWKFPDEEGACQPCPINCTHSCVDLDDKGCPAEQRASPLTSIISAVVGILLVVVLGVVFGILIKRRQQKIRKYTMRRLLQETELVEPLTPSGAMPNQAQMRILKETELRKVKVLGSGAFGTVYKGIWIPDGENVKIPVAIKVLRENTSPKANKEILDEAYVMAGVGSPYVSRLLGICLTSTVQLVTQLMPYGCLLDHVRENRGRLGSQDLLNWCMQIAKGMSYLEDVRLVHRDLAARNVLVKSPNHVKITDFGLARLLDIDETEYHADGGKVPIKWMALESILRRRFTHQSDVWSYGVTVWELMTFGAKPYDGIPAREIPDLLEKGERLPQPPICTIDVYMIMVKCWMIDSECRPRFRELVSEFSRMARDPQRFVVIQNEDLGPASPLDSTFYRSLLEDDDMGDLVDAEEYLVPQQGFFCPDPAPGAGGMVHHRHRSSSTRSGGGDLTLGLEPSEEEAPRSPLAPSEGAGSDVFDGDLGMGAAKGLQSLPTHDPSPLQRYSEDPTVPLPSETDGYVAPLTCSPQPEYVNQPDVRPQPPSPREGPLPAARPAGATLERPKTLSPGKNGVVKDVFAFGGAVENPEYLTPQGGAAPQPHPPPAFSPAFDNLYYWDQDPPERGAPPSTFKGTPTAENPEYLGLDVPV

Row | SMILES | IC50 (EGF-R (HER-1)) | IC50 (ErbB-2 (HER-2)) | IC50 (VEGF Receptor (KDR)) | melting point
1 | CN(C)CCOc1ccc(Nc2nccc(-c3c[nH]nc3-c3ccc(Cl)cc3)n2)cc1 [Example 2, {4-[3-(4-Chloro-phenyl)-1H-pyrazol-4-yl]-pyrimidin-2-yl}-[4-(2-dimethyl-amino-ethoxy)-phenyl]-amine] | 22 nM | 19 nM | 21 nM | 
2 | Cc1cccc(-c2n[nH]cc2-c2ccnc(Nc3ccc(N4CCN(C)CC4)cc3)n2)c1 [Example 18, [4-(4-Methyl-piperazin-1yl)-phenyl]-[4-(3-m-tolyl-1H-pyrazol-4-yl)-pyrimidin-2-yl]-amine] | 21 nM | 13 nM | 4 nM | 
3 | Cc1cccc(-c2n[nH]cc2-c2ccnc(Nc3ccc(OCCN(C)C)cc3)n2)c1 [Example 20, [4-(2-Dimethylamino-ethoxy)-phenyl]-[4-(3-m-tolyl-1H-pyrazol-4-yl)-pyrimidin-2-yl]-amine] | 27 nM | 15 nM | 6 nM | 
4 | CN(C)CCOc1ccc(Nc2nccc(-c3c[nH]nc3-c3ccc(Cl)c(Cl)c3)n2)cc1 [Example 21, {4-[3-(3,4-Dichloro-phenyl)-1H-pyrazol-4-yl]-pyrimidin-2-yl}-[4-(2-dimethylamino-ethoxy)-phenyl]-amine] | 29 nM | 16 nM | 15 nM | 
5 | COc1cc(Nc2nccc(-c3c[nH]nc3-c3ccc4c(c3)OCO4)n2)cc(OC)c1OC [Example 46, [4-(3-Benzo[1,3]dioxol-5-yl-1H-pyrazol-4-yl)-pyrimidin-2-yl]-(3,4,5-trimethoxy-phenyl)-amine] | 28 nM | 6 nM | 3 nM | 
6 | Cc1ccc(-c2n[nH]cc2-c2ccnc(Nc3ccc(CN4CCN(C)CC4)cc3)n2)cc1 [Example 60, [4-(4-Methyl-piperazin-1-ylmethyl)-phenyl]-[4-(3-p-tolyl-1H-pyrazol-4-yl)-pyrimidin-2-yl]-amine] | 20 nM | 44 nM | 10 nM | 250 °C
7 | CN1CCN(c2ccc(Nc3nccc(-c4cn(C)nc4-c4ccc(Cl)cc4)n3)cc2)CC1 [Example 91, {4-[3-(4-Chloro-phenyl)1-methyl-1H-pyrazol-4yl]-pyrimidin-2-yl}-[4-(4-methyl-piperazin-1-yl)-phenyl]-amine] | 18 nM | 42 nM | 28 nM | 

Next, values leading:

Row | IC50 (EGF-R (HER-1)) | IC50 (ErbB-2 (HER-2)) | IC50 (VEGF Receptor (KDR)) | melting point | SMILES
8 | 18 nM | 23 nM | 10 nM | 282 to 284 °C | CN1CCN(c2ccc(Nc3nccc(-c4c[nH]nc4-c4ccc(Cl)cc4)n3)cc2)CC1 [Example 1, {4-[3-(4-Chloro-phenyl)1H-pyrazol-4yl]-pyrimidin-2-yl}-[4-(4-methyl-piperazin-1-yl)-phenyl]-amine]
9 | 13 nM | 28 nM | 4 nM |  | CCN1CCN(Cc2ccc(Nc3nccc(-c4c[nH]nc4-c4ccc(C)cc4)n3)cc2)CC1 [Example 101, [4-(4-Ethyl-piperazin-1-ylmethyl)-phenyl]-[4-(3-p-tolyl-1H-pyrazol-4)-pyrimidin-2-yl]-amine]
10 | 16 nM | 34 nM | 3 nM | 280 °C | CCN1CCN(c2ccc(Nc3nccc(-c4c[nH]nc4-c4ccc(C)cc4)n3)cc2)CC1 [Example 109, [4-(4-Ethyl-piperazin-1-yl)-phenyl]-[4-(3-p-tolyl-1H-pyrazol-4yl)-pyrimidin-2-yl]-amine]
11 | 9 nM | < 10 nM | 21 nM | 369 °C | Clc1ccc(-c2n[nH]cc2-c2ccnc(Nc3ccc(-c4nnn[nH]4)cc3)n2)cc1 [Example 116, {4-[3-(4-Chloro-phenyl)-1H-pyrazol-4-yl]-pyrimidin-2-yl}-[4-(1H-tetrazol-5-yl)-phenyl]-amine]
12 | 3 nM | 17 nM | 5 nM |  | Cc1ccc(-c2n[nH]cc2-c2ccnc(Nc3cccc(OCC4CCN(C)CC4)c3)n2)cc1 [Example 124, [3-(1-Methyl-piperidin-4-ylmethoxy)-phenyl]-[4-(3-p-tolyl-1H-pyrazol-4yl)-pyrimidin-2-yl]-amine]
